Experimental data: patent US20100029697A1, “SUBSTITUTED PYRIDO[3,2-E][1,2,4]TRIAZOLO[4,3-C]PYRIMIDINE DERIVATIVES AS CANNABINOID-1 RECEPTOR MODULATORS” (priority 2007, published 2010)

Assays:
[1] = molecular target: recombinant human CB1 receptor expressed in CHO cells (Homo sapiens, UniProt P21554); assay: Cannabinoid Receptor-1 (CB1) Functional Activity Assay (intracellular cAMP, forskolin-stimulated CB1-CHO cells); type: cell-based; conditions: for EC50: cAMP level in CB1-CHO cells with forskolin; for functional mode at CB1 receptor in the CB1 functional activity assay: cAMP readout in CB1-CHO cells
Procedure: The functional activation of CB1 receptor is based on recombinant human CB1 receptor expressed in CHO cells (Felder et al, Mol. Pharmacol. 48: 443-450, 1995). To determine the agonist activity or inverse agonist activity of any test compound, 50 ul of CB1-CHO cell suspension are mixed with test compound and 70 ul assay buffer containing 0.34 mM 3-isobutyl-1-methylxanthine and 5.1 uM of forskolin in 96-well plates. The assay buffer is comprised of Earle's Balanced Salt Solution supplemented with 5 mM MgCl2, 1 mM glutamine, 10 mM HEPES, and 1 mg/mL bovine serum albumin. The mixture is incubated at room temperature for 30 minutes, and terminated by adding 30 ul/well of 0.5M HCl. The total intracellular cAMP level is quantitated using the New England Nuclear Flashplate and cAMP radioimmunoassay kit.
To determine the antagonist activity of test compound, the reaction mixture also contains 0.5 nM of the agonist CP55940 (or 50 nM of methanandamide), and the reversal of the CP55940 (or methanandamide) effect is quantitated with increasing concentration of the test compound. Intracellular cAMP is determined as described above. An IC50 value for the test compound is calculated from the titration curve.

[2] = molecular target: recombinant human CB1 receptor (Homo sapiens, UniProt P21554); assay: Cannabinoid Receptor-1 (CB1) Binding Assay ([3H]CP-55940 displacement); conditions: recombinant human CB1 receptor in CHO cell membranes, 0.6 nM [3H]CP-55940
Procedure: Binding affinity determination is based on recombinant human CB1 receptor expressed in Chinese Hamster Ovary (CHO) cells (Felder et al, Mol. Pharmacol. 48: 443-450, 1995). Total assay volume is 250 μl (240 μl CB1 receptor membrane solution plus 5 μl test compound solution plus 5 μl [3H]CP-55940 solution). Final concentration of [3H]CP-55940 is 0.6 nM. Binding buffer contains 50 mM Tris-HCl, pH7.4, 2.5 mM EDTA, 5 mM MgCl2, 0.5 mg/mL fatty acid free bovine serum albumin and protease inhibitors (Cat#P8340, from Sigma). To initiate the binding reaction, 5 μl of radioligand solution is added, the mixture is incubated with gentle shaking on a shaker for 1.5 h at 30° C. The binding is terminated by using 96-well harvester and filtering through GF/C filter presoaked in 0.05% polyethylenimine. The bound radiolabel is quantitated using scintillation counter. Apparent binding affinities for various compounds are calculated from IC50 values (DeBlasi et al., Trends Pharmacol Sci 10: 227-229, 1989).

Sequence of recombinant human CB1 receptor expressed in CHO cells (P21554 whole entry): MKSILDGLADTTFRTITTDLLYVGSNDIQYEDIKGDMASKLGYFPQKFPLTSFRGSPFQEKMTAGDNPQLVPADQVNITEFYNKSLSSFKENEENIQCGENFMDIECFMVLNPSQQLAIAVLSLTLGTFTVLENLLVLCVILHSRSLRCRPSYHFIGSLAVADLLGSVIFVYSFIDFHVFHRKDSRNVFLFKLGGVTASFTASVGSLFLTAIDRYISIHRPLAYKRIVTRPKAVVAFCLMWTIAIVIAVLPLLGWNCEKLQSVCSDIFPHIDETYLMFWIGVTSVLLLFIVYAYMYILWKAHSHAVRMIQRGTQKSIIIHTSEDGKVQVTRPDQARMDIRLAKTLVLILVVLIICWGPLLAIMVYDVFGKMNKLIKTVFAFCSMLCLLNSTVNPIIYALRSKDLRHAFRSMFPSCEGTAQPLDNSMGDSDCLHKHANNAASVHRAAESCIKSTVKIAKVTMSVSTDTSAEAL
Sequence of recombinant human CB1 receptor (P21554 whole entry): as above

EC50 [1] [nM] | functional mode at CB1 receptor in the CB1 functional activity assay [1] | IC50 [2] [nM] | SMILES
< 100 | functional inverse agonists | 2 | CC(C)(C)c1nc2nc(-c3ccccc3Cl)c(-c3ccc(Cl)cc3)cc2c2n[nH]c(=O)n12 [Example 1, 5-Tert-butyl-8-(2-chlorophenyl)-9-(4-chlorophenyl)pyrido[3,2-e][1,2,4]triazolo[4,3-c]pyrimidin-3(2H)-one]
< 100 | functional inverse agonists | 10 | CC(=O)c1ccc(-c2cc3c(nc2-c2ccccc2Cl)nc(C(C)(C)C)n2c(=O)[nH]nc32)cc1 [Example 9, 9-(4-Acetylphenyl)-5-tert-butyl-8-(2-chlorophenyl)pyrido[3,2-e][1,2,4]triazolo[4,3-c]pyrimidin-3(2H)-one]
< 100 | functional inverse agonists | 6 | CC(C)(C)c1nc2nc(-c3ccccc3Cl)c(-c3ccc(C#N)cc3)cc2c2n[nH]c(=O)n12 [Example 16, 4-[5-Tert-butyl-8-(2-chlorophenyl)-3-oxo-2,3-dihydropyrido[3,2-e][1,2,4]triazolo[4,3-c]pyrimidin-9-yl]benzonitrile]
< 100 | functional inverse agonists | 6 | CC(C)(C)c1nc2nc(-c3ccccc3-c3ccc(F)cc3)c(-c3ccc(F)cc3)cc2c2n[nH]c(=O)n12 [Example 27, 5-Tert-butyl-8-(4′-fluorobiphenyl-2-yl)-9-(4-fluorophenyl)pyrido[3,2-e][1,2,4]triazolo[4,3-c]pyrimidin-3(2H)-one]
< 100 | functional inverse agonists | 1 | CC(C)(C)c1nc2nc(-c3ccc(C#N)cc3Cl)c(-c3ccc(Cl)cc3)cc2c2n[nH]c(=O)n12 [Example 28, 4-[5-Tert-butyl-9-(4-chlorophenyl)-3-oxo-2,3-dihydropyrido[3,2-e][1,2,4]triazolo[4,3-c]pyrimidin-8-yl]-3-chlorobenzonitrile]
< 100 | functional inverse agonists | 4 | CC(C)(C)c1nc2nc(-c3ccc(C#N)cc3C#N)c(-c3ccc(Cl)cc3)cc2c2n[nH]c(=O)n12 [Example 31, 4-[5-Tert-butyl-9-(4-chlorophenyl)-3-oxo-2,3-dihydropyrido[3,2-e][1,2,4]triazolo[4,3-c]pyrimidin-8-yl]isophthalonitrile]
< 100 | functional inverse agonists | 11 | CC(C)(C)c1nc2nc(-c3ccccc3Cl)c(-c3ccc(-c4ncon4)cc3)cc2c2n[nH]c(=O)n12 [Example 32, 5-Tert-butyl-8-(2-chlorophenyl)-9-[4-(1,2,4-oxadiazol-3-yl)phenyl]pyrido[3,2-e][1,2,4]-triazolo[4,3-c]pyrimidin-3(2H)-one]
